Data on nine compounds can be found in PubChem BioAssay (NCI).

Some test systems named below: SK-MEL-5 melanoma; SF-268 CNS; EKVX NSCLC; IGROV1 ovarian; HCT-15 colon; SR leukemia; MCF7 breast; HT29 colon; HOP-92 NSCLC; K-562 leukemia.
What all share (assay): NCI-60 cell line screen, 48 h

Several values for one entry are separate records, joined by “and”; a condition that tells them apart may be missing. Identical values can stand only once.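 Briefly, cells in 96-well plates were exposed to five compound concentrations for 48 h, and endpoints were estimated by linear interpolation. GI50 is the concentration that inhibits growth by half. TGI is the concentration that stops growth completely.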

`C=C1C(=O)O[C@H]2[C@H]1CC/C(COC(=O)NCC(C)c1ccc(CC(C)C)cc1)=C\CC[C@@]1(C)O[C@@H]21` (some centres not stated): the GI50 is 3.97 µM with SK-MEL-5 melanoma; 1.82 µM in the assay with SF-268 CNS; 3.85 µM in the assay on EKVX NSCLC; 0.551 µM in the assay on IGROV1 ovarian; 0.595 µM in the assay on HCT-15 colon; 0.678 µM in the assay with SR leukemia. Further, the results for the GI50 with MCF7 breast, with HT29 colon and in the assay on HOP-92 NSCLC were 0.902 µM, 1.03 µM and 0.545 µM, respectively. In addition, the TGI in the assay with SK-MEL-5 melanoma came out at 8.07 µM; in the assay on SF-268 CNS, 6.59 µM; with EKVX NSCLC it was 7.95 µM; in the assay on IGROV1 ovarian it was 1.18 µM; with HCT-15 colon, 1.27 µM; in the assay on SR leukemia, 3.6 µM. Also, the TGI turned out to be 4.18 µM in the assay on MCF7 breast, 2.52 µM in the assay with HT29 colon and 1.5 µM with HOP-92 NSCLC.

Regarding `CC(C)(C)OC(=O)NCCCCCCCn1c2c(c3ccccc3c1=O)C(=O)c1ccccc1-2`, the GI50 in the assay with K-562 leukemia is 42.7 µM; with SK-MEL-5 melanoma, 9.84 µM; in the assay with SF-268 CNS, 25.4 µM; with EKVX NSCLC, more than 100 µM; with IGROV1 ovarian, 26.9 µM; with HCT-15 colon, 41.7 µM. The GI50 in the assay on SR leukemia is 4.95 µM; in the assay on MCF7 breast it was 55.4 µM; in the assay on HT29 colon it was 37.6 µM; with HOP-92 NSCLC, 15 µM. Further, the TGI with K-562 leukemia was more than 100 µM; in the assay with SK-MEL-5 melanoma it was 27.6 µM; with SF-268 CNS, 93.6 µM; in the assay on EKVX NSCLC it was more than 100 µM; with IGROV1 ovarian, more than 100 µM; in the assay with HCT-15 colon, more than 100 µM. Further, the TGI with SR leukemia is more than 100 µM; with MCF7 breast, more than 100 µM; in the assay with HT29 colon, more than 100 µM; with HOP-92 NSCLC, 37.1 µM.

For the compound `Cc1cc(N(CCC#N)CCC#N)ccc1/C=C(\NC(=O)/C=C/c1ccccc1)C(=O)NN`, the TGI with K-562 leukemia, with SK-MEL-5 melanoma, in the assay on SF-268 CNS, in the assay with EKVX NSCLC, with IGROV1 ovarian and in the assay with HCT-15 colon was more than 100 µM each time. Besides, the TGI in the assay with SR leukemia is more than 100 µM; in the assay on MCF7 breast it was more than 100 µM; in the assay with HT29 colon it was more than 100 µM; in the assay on HOP-92 NSCLC, 63.7 µM.

Consider `CCN(C(=O)/C=C/c1ccco1)c1ccccc1`, for which the TGI in the assay with K-562 leukemia, in the assay with SK-MEL-5 melanoma, in the assay on SF-268 CNS, in the assay on EKVX NSCLC, in the assay with IGROV1 ovarian and in the assay on HCT-15 colon was more than 100 µM in each case. In addition, the TGI with SR leukemia, in the assay on MCF7 breast, with HT29 colon and with HOP-92 NSCLC was more than 100 µM each time.

Take `Cc1ccc(-c2nc3nc(-c4ccc(F)cc4)nc(N4CCCNCC4)c3o2)cc1`: the GI50 in the assay with K-562 leukemia was 0.225 µM; with SK-MEL-5 melanoma, 1.75 µM; in the assay with SF-268 CNS it was 1.73 µM; in the assay on EKVX NSCLC, 1.78 µM; in the assay with IGROV1 ovarian it was 1.59 µM; in the assay with HCT-15 colon, 1.06 µM. Besides, the values for the GI50 in the assay with SR leukemia, with MCF7 breast and in the assay on HOP-92 NSCLC were 0.256 µM, 1.23 µM and 1.32 µM, respectively. The TGI with K-562 leukemia worked out at 0.539 µM; in the assay with SK-MEL-5 melanoma, 3.16 µM; in the assay on SF-268 CNS, 3.44 µM; with EKVX NSCLC, 3.34 µM; in the assay on IGROV1 ovarian it was 3.01 µM; in the assay on HCT-15 colon it was 2.42 µM. Moreover, the TGI in the assay with SR leukemia is 0.813 µM; in the assay with MCF7 breast, 2.96 µM; with HOP-92 NSCLC it was 2.88 µM.

With `CC(NC(=O)N(C)C)NC(=O)N(C)C`, the TGI with K-562 leukemia, with SK-MEL-5 melanoma, with SF-268 CNS, in the assay on EKVX NSCLC, with IGROV1 ovarian and with HCT-15 colon was more than 10 µM each time. The TGI with SR leukemia, in the assay on MCF7 breast, with HT29 colon and in the assay on HOP-92 NSCLC was more than 10 µM in each case.

`C=C1C[C@@H]2CC[C@@]34C[C@H]5O[C@H]6[C@@H](O3)[C@H]3O[C@H](CC[C@@H]3O[C@H]6[C@@H]5O4)CC(=O)C[C@@H]3[C@@H](OC)[C@@H](C[C@H](O)CN)O[C@H]3C[C@H]3O[C@@H](CC[C@@H]1O2)C[C@@H](C)C3=C`: the GI50 in the assay with K-562 leukemia was less than 0.01 µM; with SK-MEL-5 melanoma it was less than 0.0135 µM; in the assay with SF-268 CNS it was 0.304 µM; in the assay on EKVX NSCLC it was less than 0.01 µM; in the assay on IGROV1 ovarian, less than 0.01 µM; in the assay on HCT-15 colon, 0.326 µM. In addition, the GI50 with SR leukemia is less than 0.01 µM; in the assay with MCF7 breast it was less than 0.01 µM; in the assay on HT29 colon it was less than 0.01 µM; in the assay on HOP-92 NSCLC it was 0.0734 µM. The TGI is more than 100 µM with K-562 leukemia; 1.11 µM with SK-MEL-5 melanoma; more than 100 µM with SF-268 CNS; more than 100 µM in the assay with EKVX NSCLC; more than 100 µM in the assay with IGROV1 ovarian; more than 100 µM in the assay with HCT-15 colon. In addition, the TGI with SR leukemia is more than 100 µM; with MCF7 breast, more than 100 µM; with HT29 colon it was more than 100 µM; in the assay with HOP-92 NSCLC it was 79.4 µM.

For `COc1ccc2c(c1)/C(=C/c1cc(OC)c(OC)c(OC)c1)C(=O)N2`, the GI50 with K-562 leukemia is less than 0.0327 µM; in the assay on SK-MEL-5 melanoma, 0.155 µM; in the assay with SF-268 CNS, 0.419 µM; in the assay with EKVX NSCLC, 11.6 µM; with IGROV1 ovarian, 0.268 µM; in the assay with HCT-15 colon, 0.393 µM. Moreover, the GI50 was 0.35 µM in the assay on MCF7 breast, 0.116 µM with HT29 colon and 1.43 µM in the assay with HOP-92 NSCLC. The TGI was more than 36.3 µM in the assay with K-562 leukemia; more than 100 µM in the assay with SF-268 CNS; more than 100 µM in the assay on EKVX NSCLC; more than 53.8 µM in the assay with IGROV1 ovarian; more than 100 µM with HCT-15 colon; 0.59 µM in the assay on SR leukemia. Also, the TGI in the assay with MCF7 breast is more than 100 µM; with HT29 colon, 21.1 µM; with HOP-92 NSCLC, more than 33.9 µM.

For `CCC1=CC2CN(C1)Cc1c([nH]c3ccccc13)[C@@](C(=O)OC)(c1cc3c(cc1OC)N(C)[C@H]1[C@@](O)(C(=O)OC)[C@H](OC(C)=O)[C@]4(CC)C=CCN5CC[C@]31[C@@H]54)C2` (some centres not stated), the GI50 in the assay on K-562 leukemia is less than 0.005 µM; with SK-MEL-5 melanoma it was 0.00873 µM; in the assay with SF-268 CNS it was 0.122 µM and 0.145 µM; with EKVX NSCLC it was 26.7 µM and 45.8 µM; with HCT-15 colon it was 0.277 µM and 0.416 µM; in the assay on SR leukemia, less than 0.005 µM. Besides, the values for the GI50 with MCF7 breast, in the assay with HT29 colon and in the assay on HOP-92 NSCLC were less than 0.005 µM, less than 0.005 µM and 1.51 µM, respectively. Besides, the TGI was 16.6 µM and 15.2 µM in the assay on K-562 leukemia; 0.501 µM and 0.208 µM in the assay with SK-MEL-5 melanoma; 50 µM and 91 µM in the assay on SF-268 CNS; 50 µM and > 100 µM in the assay with EKVX NSCLC; 50 µM and > 100 µM in the assay on HCT-15 colon; 9.27 µM in the assay on SR leukemia. The TGI is 50 µM and > 100 µM with MCF7 breast; 6 µM and 20.9 µM with HT29 colon; 97.1 µM in the assay with HOP-92 NSCLC.
